Measurements as given in BindingDB's records for doi:10.1021/jm00020a029 (Merck Research Laboratories, 1995).
*1 amine or outer side, *2 acyl side, *3 side chain or, on linkers, in order; H or OH if unused. Where a SMILES comes first, the peptide text is derived from it. [ ]: non-standard residue; d: D form. ξ: configuration not given here. Phe(3,4-Cl2) = N[C@@H](Cc1ccc(Cl)c(Cl)c1)C(=O)O; X1 = COc1c(I)cc(C[C@H](N[*:1])C(=O)[*:2])cc1I; ξTyr(3,5-I2) = NC(Cc1cc(I)c(O)c(I)c1)C(=O)O; Tyr(3-I) = N[C@@H](Cc1ccc(O)c(I)c1)C(=O)O; Phe(4-F) = N[C@@H](Cc1ccc(F)cc1)C(=O)O; hArg = N=C(N)NCCCC[C@H](N)C(=O)O; Cha = N[C@@H](CC1CCCCC1)C(=O)O; NMeL = CN[C@@H](CC(C)C)C(=O)O; GABA = NCCCC(=O)O

Columns and labels:
[1] = Evaluated for the activation of human thrombin receptor measured by platelet aggregation
[2] = Evaluated for the activity of Radio-ligand Peptides upon the activation of human thrombin receptor measured by platelet aggregation
[3] = biological target: T1, Proteinase-activated receptor 1 (Homo sapiens, UniProt P25116); assay: Evaluated for the activation of human thrombin receptor measured by platelet aggregation
T1 sequence (P25116 whole entry): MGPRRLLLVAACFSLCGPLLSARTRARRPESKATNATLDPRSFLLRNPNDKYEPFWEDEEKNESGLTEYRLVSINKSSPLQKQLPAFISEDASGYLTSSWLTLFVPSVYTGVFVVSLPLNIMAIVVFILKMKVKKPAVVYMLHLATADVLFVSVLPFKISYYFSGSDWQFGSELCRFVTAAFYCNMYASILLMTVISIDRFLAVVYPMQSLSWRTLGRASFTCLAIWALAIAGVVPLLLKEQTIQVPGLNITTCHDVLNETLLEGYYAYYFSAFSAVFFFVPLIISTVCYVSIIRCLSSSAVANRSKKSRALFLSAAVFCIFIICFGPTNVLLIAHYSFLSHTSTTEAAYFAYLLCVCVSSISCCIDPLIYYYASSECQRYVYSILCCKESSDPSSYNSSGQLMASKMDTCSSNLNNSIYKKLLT

Row | Structure (SMILES) | EC50 [1] [nM] | EC50 [2] [nM] | EC50 [3] [nM]
1 | C[C@H](N)C(=O)N[C@@H](Cc1ccc(F)cc1)C(=O)N[C@@H](CCCN=C(N)N)C(=O)N[C@@H](CC1CCCCC1)C(=O)N[C@@H](CCCCN=C(N)N)C(=O)N[C@@H](Cc1ccc(O)c(I)c1)C(N)=O [(S)-2-((S)-2-{(S)-2-[(S)-2-((S)-2-Amino-propionylamino)-3-(4-fluoro-phenyl)-propionylamino]-5-guanidino-pentanoylamino}-3-cyclohexyl-propionylamino)-6-guanidino-hexanoic acid [1-carbamoyl-2-(4-hydroxy-3-iodo-phenyl)-ethyl]-amide] (H-A[Phe(4-F)]R[Cha][hArg][Tyr(3-I)]-NH2) | – | 30 | –
2 | C[C@H](N)C(=O)N[C@@H](Cc1ccc(F)cc1)C(=O)N[C@@H](CCCNC(=N)N)C(=O)N[C@@H](CC1CCCCC1)C(=O)N[C@@H](CCCCNC(=N)N)C(=O)N[C@@H](Cc1ccc(O)cc1)C(N)=O [(S)-2-((S)-2-{(S)-2-[(S)-2-((S)-2-Amino-propionylamino)-3-(4-fluoro-phenyl)-propionylamino]-5-guanidino-pentanoylamino}-3-cyclohexyl-propionylamino)-6-guanidino-hexanoic acid [1-carbamoyl-2-(4-hydroxy-phenyl)-ethyl]-amide] (H-A[Phe(4-F)]R[Cha][hArg]Y-NH2) | – | – | 160
3 | CC(C)C[C@H](NC(=O)[C@H](CC(C)C)NC(=O)[C@@H](Cc1ccccc1)NC(=O)[C@@H](N)CO)C(=O)N[C@@H](CCCNC(=N)N)C(N)=O [(S)-2-[(R)-2-((S)-2-Amino-3-hydroxy-propionylamino)-3-phenyl-propionylamino]-4-methyl-pentanoic acid [(S)-1-((S)-1-carbamoyl-4-guanidino-butylcarbamoyl)-3-methyl-butyl]-amide] | > 800000 | – | –
4 | NC(=O)[C@H](Cc1ccccc1)NC(=O)[C@@H](N)CO [(S)-2-Amino-N-((S)-1-carbamoyl-2-phenyl-ethyl)-3-hydroxy-propionamide] | > 800000 | – | –
5 | CC(C)C[C@H](NC(=O)[C@H](CC(C)C)NC(=O)[C@H](Cc1ccc(F)cc1)NC(=O)[C@H](C)N)C(=O)N[C@@H](CCCCNC(=N)N)C(N)=O [(S)-2-((S)-2-{(S)-2-[(S)-2-((S)-2-Amino-propionylamino)-3-(4-fluoro-phenyl)-propionylamino]-4-methyl-pentanoylamino}-4-methyl-pentanoylamino)-6-guanidino-hexanoic acid amide] (H-A[Phe(4-F)]LL[hArg]-NH2) | 120 | – | –
6 | C[C@H](N)C(=O)N[C@@H](Cc1ccc(F)cc1)C(=O)N[C@@H](CCCNC(=N)N)C(=O)N[C@@H](CC1CCCCC1)C(=O)N[C@@H](CCCCNC(=N)N)C(=O)NC(Cc1cc(I)c(O)c(I)c1)C(N)=O (stereo partly drawn) [(S)-2-((S)-2-{(S)-2-[(S)-2-((S)-2-Amino-propionylamino)-3-(4-fluoro-phenyl)-propionylamino]-5-guanidino-pentanoylamino}-3-cyclohexyl-propionylamino)-6-guanidino-hexanoic acid [1-carbamoyl-2-(4-hydroxy-3,5-diiodo-phenyl)-ethyl]-amide] (H-A[Phe(4-F)]R[Cha][hArg][ξTyr(3,5-I2)]-NH2) | – | 150 | –
7 | CC(C)C[C@H](NC(=O)[C@H](CC(C)C)NC(=O)[C@H](Cc1ccccc1)NC(=O)CCCN)C(=O)N[C@@H](CCCNC(=N)N)C(N)=O [(S)-2-[(S)-2-(4-Amino-butyrylamino)-3-phenyl-propionylamino]-4-methyl-pentanoic acid [(S)-1-((S)-1-carbamoyl-4-guanidino-butylcarbamoyl)-3-methyl-butyl]-amide] (H-[GABA]FLLR-NH2) | 730000 | – | –

Further lines, results first:

Row | EC50 [1] [nM] | EC50 [2] [nM] | EC50 [3] [nM] | Structure (SMILES)
8 | 270 | 300 | – | CC(C)C[C@H](NC(=O)[C@H](Cc1ccc(Cl)c(Cl)c1)NC(=O)[C@H](C)N)C(=O)N[C@@H](CC1CCCCC1)C(=O)N[C@@H](CCCNC(=N)N)C(N)=O [(S)-2-[(S)-2-((S)-2-Amino-propionylamino)-3-(3,4-dichloro-phenyl)-propionylamino]-4-methyl-pentanoic acid [(S)-1-((S)-1-carbamoyl-4-guanidino-butylcarbamoyl)-2-cyclohexyl-ethyl]-amide] (H-A[Phe(3,4-Cl2)]L[Cha]R-NH2)
9 | 10 | 1500 | – | COc1c(I)cc(C[C@H](NC(=O)[C@H](Cc2ccc(Cl)c(Cl)c2)NC(=O)[C@H](C)N)C(=O)N[C@@H](CC2CCCCC2)C(=O)N[C@@H](CCCNC(=N)N)C(N)=O)cc1I [(S)-2-{(S)-2-[(S)-2-[(S)-2-((S)-2-Amino-propionylamino)-3-(3,4-dichloro-phenyl)-propionylamino]-3-(3,5-diiodo-4-methoxy-phenyl)-propionylamino]-3-cyclohexyl-propionylamino}-5-guanidino-pentanoic acid amide] (H-A[Phe(3,4-Cl2)][X1][Cha]R-NH2)
10 | 260000 | – | – | CC(C)C[C@H](NC(=O)[C@H](Cc1ccccc1)NC(=O)[C@H](C)N)C(=O)N(C)[C@@H](CC(C)C)C(=O)N[C@@H](CCCNC(=N)N)C(N)=O [(S)-2-[(S)-2-((S)-2-Amino-propionylamino)-3-phenyl-propionylamino]-4-methyl-pentanoic acid [(S)-1-((S)-1-carbamoyl-4-guanidino-butylcarbamoyl)-3-methyl-butyl]-methyl-amide] (H-AFL[NMeL]R-NH2)
11 | 200 | – | – | CC(C)C[C@H](NC(=O)[C@H](CC(C)C)NC(=O)[C@H](Cc1ccccc1)NC(=O)[C@@H](N)CO)C(=O)N[C@@H](CCCNC(=N)N)C(=O)N[C@@H](CC(N)=O)C(N)=O [(S)-2-[(S)-2-((S)-2-{(S)-2-[(S)-2-((S)-2-Amino-3-hydroxy-propionylamino)-3-phenyl-propionylamino]-4-methyl-pentanoylamino}-4-methyl-pentanoylamino)-5-guanidino-pentanoylamino]-succinamide]
12 | 21400 | – | – | COc1ccc(C[C@H](NC(=O)[C@H](C)N)C(=O)N[C@@H](CC(C)C)C(=O)N[C@@H](CC(C)C)C(=O)N[C@@H](CCCNC(=N)N)C(N)=O)cc1 [(S)-2-[(S)-2-((S)-2-Amino-propionylamino)-3-(4-methoxy-phenyl)-propionylamino]-4-methyl-pentanoic acid [(S)-1-((S)-1-carbamoyl-4-guanidino-butylcarbamoyl)-3-methyl-butyl]-amide] (H-AY(Me)LLR-NH2)
13 | 140 | – | – | CC(C)C[C@H](NC(=O)[C@H](Cc1ccc(F)cc1)NC(=O)[C@H](C)N)C(=O)N[C@@H](CC1CCCCC1)C(=O)N[C@@H](CCCNC(=N)N)C(N)=O [(S)-2-[(S)-2-((S)-2-Amino-propionylamino)-3-(4-fluoro-phenyl)-propionylamino]-4-methyl-pentanoic acid [(S)-1-((S)-1-carbamoyl-4-guanidino-butylcarbamoyl)-2-cyclohexyl-ethyl]-amide] (H-A[Phe(4-F)]L[Cha]R-NH2)
